# Reference: patent US7625889B2, “Substituted bis aryl and heteroaryl compounds as selective 5HT2A antagonists” (Aventis Pharmaceuticals Inc., priority 2005, dated 2009)
# pKi: −log10 of the molar value.
# How the values were obtained:
# human 5HT2A receptor = target: T1, human 5HT2A receptor (Homo sapiens, UniProt P28223); experiment: Receptor Binding Assay, 5HT2A ([3H]N-methyl spiperone); settings: BHK cells expressing human 5HT2A receptor, 2.5 nM [3H]N-methyl spiperone, 37° C.
# T1 construct: expressed in transfected cells
# Method: Cell Culture: BHK cells stably expressing the human 5HT2A receptor were maintained in Dulbecco's Modified Eagle's Medium supplemented with […] Geneticin, 1% Sodium Pyruvate, 1% Pen-Strep and 10% Fetal Calf Serum, and treated with 5 mM sodium butyrate for 24 h to increase receptor expression before harvesting. Cells were harvested by mechanical scraping, washed with Phosphate Buffered Saline, and stored at −80° C. in 10% DMSO in 1 mg/mil aliquots until used. Protein determination was made according to Lowry.
# Receptor Binding Assays: The 5HT2A and D2L assays were conducted at 37° C. in a Tris buffer containing salts (50 mM Tris Buffer, pH 7.7; 120 mM NaCl; 5 mM KCl; 2 mM CaCl2; 1 mM MgCl2). Cell membranes (previously prepared and frozen) were rapidly thawed. Membranes were diluted to an appropriate concentration (to produce 100 μg protein/assay point for 5HT2A, and 58 μg protein/assay point for D2L) in Tris buffer and homogenized. Assays were conducted on 96-well plates, using 2.5 and 1 nM [^3H]N-methyl spiperone as radioligand for 5HT2A and D2L assays, respectively. Plates were incubated at 37° C. in a shaking water bath for 30 and 60 min, for 5HT2A and D2L, respectively. Nonspecific binding was defined using 100 μM methylsergide and eticlopride, for 5HT2A and D2L, respectively.
# Assays were terminated by rapid filtration through Millipore MAFB or MAFC (5HT2C) filter plates (presoaked in 50 mM Tris HCl, pH 7.7, with 0.1% Brij) using a Millipore Cell Harvester. The filter plates were then washed with ice-cold 50 mM Tris buffer, pH 7.7, and allowed to dry overnight. 50 μl of Microscint scintillation cocktail were added and the plates were counted in a Packard Topcount scintillation counter.
# IC50 and Ki calculations were performed using nonlinear regression one-site competition analysis (GraphPad, Prism), with top and bottom limits held constant at 0% and 100% inhibition, respectively. The percent inhibition at each drug concentration was the average of duplicate determinations. Except where indicated, each determination was performed 2 to 5 times.
# 5HT2A receptor site = target: T2, 5HT2A receptor site (Mus musculus, UniProt P35363); experiment: Head Twitch Assay (5-MeODMT induced head twitch); assay type: in vivo; settings: for ED50: mouse, sc, dose blocking 5-MeODMT (30 mg/kg i.p.) head twitch in 50% of male mice; for % effect @ 3 mg/kg: 3 mg/kg sc
# T2 construct: from tissue; host or cells: live male mice (whole animal)
# Method: This Example 177 illustrates the study of efficacy of the compounds of this invention at the 5HT2A receptor site in animal models.
# 5-MeODMT (5-Methoxy-N,N-dimethyltryptamine) Inhibition: Groups of male mice are administered test compounds at selected doses. At an appropriate interval thereafter, 5-MeODMT (dissolved in 0.5% ascorbic acid) is administered at a dose of 30 mg/kg i.p. Immediately after administration of 5-MeODMT, and continuing for the following 6 min, the number of head twitches for each animal is counted. […] The ED50 is calculated as the dose necessary to block head twitch in 50% of the test animals. All experiments are performed with at least 10 animals per condition.
# T1 sequence (P28223 whole entry): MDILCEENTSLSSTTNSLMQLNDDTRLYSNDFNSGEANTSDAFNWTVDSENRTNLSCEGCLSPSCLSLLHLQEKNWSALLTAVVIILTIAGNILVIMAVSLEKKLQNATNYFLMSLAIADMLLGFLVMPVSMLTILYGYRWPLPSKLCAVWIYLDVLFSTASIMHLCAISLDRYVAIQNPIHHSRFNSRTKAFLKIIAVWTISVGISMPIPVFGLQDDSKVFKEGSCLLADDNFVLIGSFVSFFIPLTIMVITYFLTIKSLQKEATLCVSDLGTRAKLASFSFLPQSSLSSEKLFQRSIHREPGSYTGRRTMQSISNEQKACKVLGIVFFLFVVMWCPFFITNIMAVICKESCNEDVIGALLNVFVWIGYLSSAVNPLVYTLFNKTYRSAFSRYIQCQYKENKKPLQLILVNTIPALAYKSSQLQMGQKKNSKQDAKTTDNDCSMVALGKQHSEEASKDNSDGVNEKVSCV
# T2 sequence (P35363 whole entry): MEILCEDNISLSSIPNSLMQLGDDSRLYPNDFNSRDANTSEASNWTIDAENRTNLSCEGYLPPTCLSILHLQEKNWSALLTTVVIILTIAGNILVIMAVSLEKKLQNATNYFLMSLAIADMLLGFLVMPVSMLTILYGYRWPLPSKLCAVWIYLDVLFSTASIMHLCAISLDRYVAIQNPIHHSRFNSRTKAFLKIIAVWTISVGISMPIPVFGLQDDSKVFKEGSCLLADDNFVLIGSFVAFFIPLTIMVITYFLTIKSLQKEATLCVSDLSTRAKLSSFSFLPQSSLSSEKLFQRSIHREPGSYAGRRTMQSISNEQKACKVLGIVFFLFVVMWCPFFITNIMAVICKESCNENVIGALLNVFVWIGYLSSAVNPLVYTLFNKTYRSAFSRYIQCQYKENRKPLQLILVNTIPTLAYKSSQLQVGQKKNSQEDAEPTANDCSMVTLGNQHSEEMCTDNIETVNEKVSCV
SMILES,pKi (human 5HT2A receptor),ED50 (5HT2A receptor site) [mg/kg],"% effect @ 3 mg/kg (5HT2A receptor site; head twitch, male mice) [%]","% effect @ 1 mg/kg (5HT2A receptor site; 1 mg/kg sc, head twitch, male mice) [%]"
"CC(=O)O.CN1CCN(Cc2cc(-c3ccc4[nH]c(=O)oc4c3)co2)[C@@H](c2ccc(F)cc2)C1 [Example 95, 6-{5-[2S-(4-Fluorophenyl)-4-methylpiperazine-1-ylmethyl]-furan-3-yl}-3H-benzoxazol-2-one]",8.72,0.5,–,–
"CN1CCN(Cc2cc(-c3ccc4[nH]ccc4c3)co2)[C@@H](c2ccc(F)cc2)C1.O=C(O)C(F)(F)F [Example 94, 5-{5-[2S-(4-Fluoro-phenyl)-4-methyl-piperazin-1-ylmethyl]-furan-3-yl}-1H-indole; compound with trifluoro-acetate]",–,~3,50,–
"CN1CCN(Cc2cc(-c3ccc4[nH]ncc4c3)co2)[C@@H](c2ccc(F)cc2)C1 [Example 161, 5-{5-[2S-(4-Fluoro-phenyl)-4-methyl-piperazin-1-ylmethyl]-furan-3-yl}-1H-indazole]",–,0.16,–,–
"CN1CCN(Cc2cc(-c3ccc4[nH]ccc4c3)ccc2F)[C@@H](c2ccc(F)cc2)C1 [Example 92, 5-{4-Fluoro-3-[2S-(4-fluoro-phenyl)-4-methyl-piperazin-1-ylmethyl]-phenyl}-1H-indole]",–,0.53,–,–
Fc1ccc(-c2ccc3[nH]ncc3c2)cc1CN1CCNCC1c1cccs1 (stereo not shown) [Example 47],8.91,~3,50,–
"CC(=O)O.CN1CCN(Cc2cncc(-c3ccc4[nH]c(=O)oc4c3)c2)[C@@H](c2ccc(F)cc2)C1 [Example 98, 6-{5-[2S-(4-Fluoro-phenyl)-4-methyl-piperazin-1-ylmethyl]-pyridin-3-yl}-3H-benzooxazol-2-one acetate]",8.92,0.49,–,–
CN(C)CCN(Cc1ccccc1)Cc1cccc(-c2ccc3[nH]c(=O)oc3c2)c1.Cl [Example 3],9.05,< 1,–,100
O=C(c1ccc(F)cc1)N(CCN1CCCC1)Cc1cc(-c2ccc3[nH]c(=O)oc3c2)ccc1F [Example 21],9.59,< 3,60,–
"CN(C)CCN(Cc1cc(-c2ccc3[nH]c(=O)oc3c2)ccc1F)C(=O)c1ccc(F)cc1 [Example 104, N-(2-Dimethylamino-ethyl)-4-fluoro-N-[2-fluoro-5-(2-oxo-2,3-dihydro-benzooxazol-6-yl)-benzyl]-benzamide]",9.51,6.36,–,–
"CC(=O)O.CN1CCN(Cc2cncc(-c3ccc4[nH]ccc4c3)c2)[C@@H](c2ccc(F)cc2)C1 [Example 91, 5-{5-[2S-(4-Fluoro-phenyl)-4-methyl-piperazin-1-ylmethyl]-pyridin-3-yl}-1H-indole acetate]",9.22,0.41,–,–
Cc1cc2cc(-c3ccc(F)c(CN(CCN(C)C)C(=O)c4ccc(F)cc4)c3)ccc2[nH]1 [Example 23],9.43,0.16,–,–
CC(=O)O.Fc1ccc(-c2ccc3[nH]ncc3c2)cc1CN1CCNC[C@@H]1c1cccs1 [Example 44],–,0.54,–,–
CN1CCC(N(Cc2cc(-c3ccc4[nH]ccc4c3)ccc2F)C(=O)c2ccc(F)cc2)CC1 [Example 34],8.90,1.09,–,–
CN(C)CCN(Cc1cc(-c2ccc3[nH]ccc3c2)ccc1F)C(=O)c1ccc(F)cc1 [Example 26],9.17,0.82,–,–
"O=C(c1ccc(F)cc1)N(CCN1CCCC1)Cc1cc(-c2ccc3[nH]ccc3c2)ccc1F [Example 20, 4-Fluoro-N-[2-fluoro-5-(1H-indol-5-yl)-benzyl]-N-(2-pyrrolidin-1-yl-ethyl)-benzamide]",9.49,0.27,–,–
"CC(=O)O.CN1CCN(Cc2cc(-c3ccc4[nH]ncc4c3)ccc2F)[C@@H](c2cccs2)C1 [Example 159, 5-[4-Fluoro-3-(4-methyl-2R-thiophen-2-yl-piperazin-1-ylmethyl)-phenyl]-1H-indazole acetate]",–,0.04,–,–
CN1CCC(N(Cc2cccc(-c3ccc4[nH]ccc4c3)c2)C(=O)c2ccc(F)cc2)CC1 [Example 27],9.15,0.59,–,–
"Fc1ccc([C@H]2CNCCN2Cc2cncc(-c3ccc4[nH]ncc4c3)c2)cc1 [Example 113, 5-{5-[2S-(4-Fluoro-phenyl)-piperazin-1-ylmethyl]-pyridin-3-yl}-1H-indazole]",9.40,–,–,–
"CN1CCC(N(Cc2ccc(F)cc2)Cc2cc(-c3ccc4[nH]ccc4c3)ccc2F)CC1 [Example 70, (4-Fluoro-benzyl)-[2-fluoro-5-(1H-indol-5-yl)-benzyl]-(1-methyl-piperidin-4-yl)-amine]",9.14,–,–,–
"Fc1ccc([C@H]2CNCCN2Cc2cc(-c3ccc4[nH]ncc4c3)ccc2F)cc1 [Example 42, {4-Fluoro-3-[2S-(4-fluoro-phenyl)-piperazin-1-ylmethyl]-phenyl}-1H-indazole]",9.21,1.73,–,–
CN(C)CCN(Cc1ccc(F)cc1)Cc1cc(-c2ccc3[nH]c(=O)oc3c2)co1 [Example 50],8.60,–,–,–
O=C(c1ccc(F)cc1)N(CCN1CCCC1)Cc1cncc(-c2ccc3[nH]ccc3c2)c1 [Example 39],8.96,–,–,–
"O=C(c1ccc(F)cc1)N(CCN1CCCC1)Cc1cc(F)cc(-c2ccc3[nH]ccc3c2)c1 [Example 133, 4-Fluoro-N-[3-fluoro-5-(1H-indol-5-yl)-benzyl]-N-(2-pyrrolidin-1-yl-ethyl)-benzamide]",–,0.92,–,–
"CN1CCC(N(Cc2ccc(F)cc2)Cc2cc(-c3ccc4[nH]ncc4c3)co2)CC1 [Example 119, (4-Fluoro-benzyl)-[4-(1H-indazol-5-yl)-furan-2-ylmethyl]-(1-methyl-piperidin-4-yl)-amine]",9.11,–,–,–
O=C(c1ccc(F)cc1)N(Cc1cc(-c2ccc3[nH]c(=O)oc3c2)ccc1F)[C@H]1CN2CCC1CC2 [Example 79],9.21,–,–,–
O=C(c1ccc(F)cc1)N(CCN1CCCC1)Cc1cccc(-c2ccc3[nH]nnc3c2)c1 [Example 54],9.05,–,–,–
CN1[C@@H]2CC[C@H]1C[C@H](N(Cc1cc(-c3ccc4[nH]ncc4c3)ccc1F)C(=O)c1ccc(F)cc1)C2 [Example 65],9.05,–,–,–
"O=C(c1ccc(F)cc1)N(CCCN1CCCC1)Cc1cc(-c2ccc3[nH]ncc3c2)ccc1F [Example 100, 4-Fluoro-N-[2-fluoro-5-(1H-indazol-5-yl)-benzyl]-N-(3-pyrrolidin-1-yl-propyl)-benzamide]",9.22,–,–,–
CN(C)CCN(Cc1ccccc1)Cc1cccc(-c2ccc3[nH]c(=O)sc3c2)c1 [Example 2],8.62,–,–,–
